# According to patent US20180200308A1, “METHODS OF TREATING COLITIS” (priority 2015, published 2018):
# What was measured:
# [1] = test system: DSS-induced colitis; format: in vivo
# Method: To further examine the effect of antibiotic and a BSC on ulcerative colitis, the DSS model described supra was used with the addition of arms evaluating vancomycin as the sole antibiotic. In this experiment, three-week-old male C57B1/6 mice, 15 per group (9 in the Naïve control group), were treated according to the Table 2.
# Either vancomycin (Groups 5 and 6) or an antibiotic mixture (Groups 7 and 8) was administered to mice in their drinking water prior to receiving treatment to evaluate the effect on BSC efficacy. Mice were dosed by oral gavage with either PBS (Groups 2, 5, and 7) or BSC (Groups 6 and 8) three times per week starting on Day 9 and continuing through the end of the study (Day 38). Group 4 was dosed with a BSC three times per week starting on Day 0. On days 28-32, mice were exposed to 2% DSS in their drinking water (Groups 2-8) and observed until Day 38. Periodic measurements included body weight and clinical scores. On Day 38, animals were euthanized and features of the colon were evaluated including weight, length, and gross pathology. Colon samples were prepared for histopathology and scored by a pathologist blinded to treatment group and the nature of the Test Item.
# [2] = test system: TNBS-induced colitis; test: TNBS model of colitis with and without broad-spectrum antibiotic or vancomycin pretreatment (Example 5); format: in vivo, Balb/c mice
# Method: Additional experiments were carried out using the TNBS model (described supra) using a BSC in combination with an antibiotic. In these experiments, three-week-old male Balb/c mice, 24 per group (9 in the naïve control group), were treated according to Table 4.
# Either vancomycin (Groups 5 and 6) or an antibiotic mixture (Groups 7 and 8) was administered to mice in their drinking water prior to receiving treatment to evaluate the effect on BSC efficacy (Groups 5-8). Mice were dosed by oral gavage with either PBS (Groups 2, 5, and 7) or BSC (Groups 6 and 8) three times per week starting on Day 7 and continuing through the end of the study (Day 35). Mice in group 4 received BSC three times per week by oral gavage starting on Day 0. On day 28, mice were anesthetized with isoflurane and received intracolonic 2% TNBS (Groups 2-8). Periodic measurements included body weight and clinical scores. On Day 35, animals were euthanized and gross pathology was evaluated. Colon samples were prepared for histopathology and scored by a pathologist blinded to treatment group and the nature of the Test Item.
# [3] = vs Negative Control (Group 2), Day 38
structure (smiles),measurement,setting,value
"CN[C@H](CC(C)C)C(=O)N[C@H]1C(=O)N[C@@H](CC(N)=O)C(=O)N[C@H]2C(=O)N[C@H]3C(=O)N[C@H](C(=O)N[C@H](C(=O)O)c4cc(O)cc(O)c4-c4cc3ccc4O)[C@H](O)c3ccc(c(Cl)c3)Oc3cc2cc(c3O[C@@H]2O[C@H](CO)[C@@H](O)[C@H](O)[C@H]2O[C@H]2C[C@](C)(N)[C@H](O)[C@H](C)O2)Oc2ccc(cc2Cl)[C@H]1O [Vancomycin, vancomycin]",colon pathology (gross pathology and histopathology scores),[1]; compared to naïve mice,worsening in colon pathology
same,protection against DSS-induced disease / pathology,[1]; vs Negative Control,significant protection
same,clinical score,[1]; vs Negative Control (Group 2),reduced clinical scores
same,colon pathology (overall),[1]; vs Negative Control (Group 2),overall improvement in colon pathology
same,colon weight,[1]; vs Negative Control (Group 2),reduced colon weight
same,maximal body weight loss / body weight loss (in words),[1]; vs Negative Control (Group 2),significantly reduced
same,colon length,[1]; [3],increased colon length
same,gross pathology score,[1]; [3],improved
same,histopathology score,[1]; [3],improved
same,protection against weight loss,[2]; antibiotic pretreatment alone,no effect
same,dead or euthanized / group size,"[2]; following TNBS induction, Positive Control = anti-IL12",2/24
same,Mortality,"[2]; following TNBS induction, Positive Control = anti-IL12, Negative Control 33%",8%
same,histopathology scores,"[2]; vs Negative Control Group 2, BSC p=0.14",not different
same,clinical scores,"[2]; vs Negative Control Group 2, Positive Control = anti-IL12",not statistically improved
